Data taken from US8158646B2, “Antifungal and antiparasitic indoloquinoline derivates” (Florida Agricultural and Mechanical University, priority 2006, dated 2012).
Values after ≈ are worked out from the molar mass of the structure shown. Read-outs that look alike come from different tables or passages of the source. Marks after values point to notes of the source that are not given here. Blank lines part the entries; values can stand above or below the molecule they belong to.

Assays:
[1] = test system: Cryptococcus neoformans ATCC 90113; assay: Antifungal susceptibility testing (modified NCCLS), Cn; format: cell-based; details: for IC50 Cn: NA not defined in Table 1
Procedure: (§1) Compounds were evaluated in vitro against a panel of microorganisms, including Candida albicans ATCC 90028 (Ca), C. krusei ATCC 6258 (Ck), Cryptococcus neoformans ATCC 90113 (Cn), Staphylococcus aureus ATCC 29213 (Sa), methicillin-resistant S. aureus ATCC 43300 (MRSA), Pseudomonas aeruginosa ATCC 27853 (Pa), Aspergilllus fumigatus ATCC 90906 (Aj), and Mycobacterium intracellulare ATCC 23068 (Mi) as previously reported [Guoyi, M.; Khan, S.; Jacob, M. R; Tekwani, B. L.; Li, Z.; Pasco, D. S.; Walker, L. A.; Khan, 1. A.; Antimicrob Agents Chemother, 2004, 48, 4450-4452]. All organisms were obtained from the American Type Culture Collection (Manassas, Va.). Susceptibility testing was performed using a modified version of the NCCLS methods [a) National Committee for Clinical Laboratory Standards. 2000. Methods for dilution antimicrobial susceptibility tests for bacteria that grow aerobically. M7-A5. National Committee for Clinical Laboratory Standards, Wayne, Pa. b) National Committee for Clinical Laboratory Standards, 1997, Reference method for broth dilution antifungal susceptibility testing of yeasts. Approved standard M27-A. National Committee for Clinical Laboratory Standards, Wayne, Pa. c) National Committee for Clinical Laboratory Standards. 2000. Susceptibility testing of mycobacteria, nocardia, and other aerobic actinomycetes, 2nd ed. Tentative standard M24- T2. National Committee for Clinical Laboratory Standards, Wayne, Pa.] for all organisms except for M intracellulare, for which the modified Alamar blue procedure described by Franzblau et al [1998. J Clin Microbiol, 36, 362-366] was followed. Briefly, samples (dissolved in DMSO) were serially diluted by using 0.9% saline and transferred in duplicate to 96-well microplates. Microbial inocula were prepared after comparison of the absorbance (at 630 nm) of cell suspensions to the 0.5 McFarland standard and dilution of the suspensions in broth (Sabouraud dextrose and cation-adjusted Mueller-Hinton broth [Difco] for the fungi and bacteria, respectively, and 5% Alamar blue [BioSource international] in Middlebrook 7H9 broth with oleic acid-albumin-dextrose-catalase enrichment for M intracellulare) to afford recommended inoculum sizes. Microbial inocula were added to the samples to achieve a final volume of 200 μl and final sample concentrations starting with 100 μg/ml. Growth, solvent, and medium controls were included on each test plate. The plates were read at either 630 nm or excitation and emission wavelengths of 544 and 590 nm (for Mi) prior to and after incubation. Percent growth was calculated and plotted with the concentration tested to afford the concentration that inhibits 50% of growth (IC50). Antimalarial and cytotoxicity testing were conducted in a similar manner as previously reported [a) Muhammad, 1.; Bedir, E.; Khan, S. I.; Tekwani, B. L.; Khan, I. A.; Takamatsu, S.; Pelletier, 1.; Walker, L. A. J Nat Prod. 2004, 67, 772-7. b) Muhammad, 1.; Dunbar, D. C.; Khan, S. 1.; Tekwani, B. L.; Bedir, E.; Takamatsu, S.; Ferreira, D, Walker L A., J Nat Prod. 2003, 66, 962-7].

[2] = test system: Candida albicans ATCC 90028; assay: Antifungal susceptibility testing (modified NCCLS), Ca; format: cell-based; details: for IC50 Ca: NA not defined in Table 1
Procedure: as §1

C. krusei ATCC 6258 = assay: Antimicrobial susceptibility testing, Ck; format: cell-based, Candida krusei; details: Candida krusei
Procedure: as §1, with “National Committee for Clinical Laboratory Standards, Wayne, Pa.] for all organisms except for M intracellulare, for which the modified Alamar blue procedure described by Franzblau et al [1998. J Clin Microbiol, 36, 362-366] was followed. Briefly, samples (dissolved in DMSO) were serially diluted by using 0.9% saline and transferred in duplicate to 96-well microplates.” left out, “Microbial inocula were added to the samples to achieve a final volume of 200 μl and final sample concentrations starting with 100 μg/ml. Growth, solvent, and medium controls were included on each test plate.” left out, “Percent growth was calculated and plotted with the concentration tested to afford the concentration that inhibits 50% of growth (IC50). Antimalarial and cytotoxicity testing were conducted in a similar manner as previously reported [a) Muhammad, 1.; Bedir, E.; Khan, S. I.; Tekwani, B. L.; Khan, I. A.; Takamatsu, S.; Pelletier, 1.; Walker, L. A. J Nat Prod. 2004, 67, 772-7. b) Muhammad, 1.; Dunbar, D. C.; Khan, S. 1.; Tekwani, B. L.; Bedir, E.; Takamatsu, S.; Ferreira, D, Walker L A., J Nat Prod. 2003, 66, 962-7].” left out

[3] = test system: methicillin-resistant S. aureus ATCC 43300; assay: Antimicrobial susceptibility testing, MRSA; format: cell-based, Staphylococcus aureus; details: Methicillin-Resistant Staphylococcus aureus; read-out: IC50 MRSA
Procedure: as §1, with “Antimalarial and cytotoxicity testing were conducted in a similar manner as previously reported [a) Muhammad, 1.; Bedir, E.; Khan, S. I.; Tekwani, B. L.; Khan, I. A.; Takamatsu, S.; Pelletier, 1.; Walker, L. A. J Nat Prod. 2004, 67, 772-7. b) Muhammad, 1.; Dunbar, D. C.; Khan, S. 1.; Tekwani, B. L.; Bedir, E.; Takamatsu, S.; Ferreira, D, Walker L A., J Nat Prod. 2003, 66, 962-7].” left out

[4] = test system: Plasmodium falciparum D6 Clone; assay: Antimalarial testing, D6 clone; format: cell-based; details: D6 Clone
Procedure: (§2) All organisms were obtained from the American Type Culture Collection (Manassas, Va.). Susceptibility testing was performed using a modified version of the NCCLS methods [a) National Committee for Clinical Laboratory Standards. 2000. Methods for dilution antimicrobial susceptibility tests for bacteria that grow aerobically. M7-A5. […] Approved standard M27-A. National Committee for Clinical Laboratory Standards, Wayne, Pa. c) National Committee for Clinical Laboratory Standards. 2000. Susceptibility testing of mycobacteria, nocardia, and other aerobic actinomycetes, 2nd ed. Tentative standard M24- T2. […] Briefly, samples (dissolved in DMSO) were serially diluted by using 0.9% saline and transferred in duplicate to 96-well microplates. Microbial inocula were prepared after comparison of the absorbance (at 630 nm) of cell suspensions to the 0.5 McFarland standard and dilution of the suspensions in broth (Sabouraud dextrose and cation-adjusted Mueller-Hinton broth [Difco] for the fungi and bacteria, respectively, and 5% Alamar blue [BioSource international] in Middlebrook 7H9 broth with oleic acid-albumin-dextrose-catalase enrichment for M intracellulare) to afford recommended inoculum sizes. Microbial inocula were added to the samples to achieve a final volume of 200 μl and final sample concentrations starting with 100 μg/ml. Growth, solvent, and medium controls were included on each test plate. […] Antimalarial and cytotoxicity testing were conducted in a similar manner as previously reported [a) Muhammad, 1.; Bedir, E.; Khan, S. I.; Tekwani, B. L.; Khan, I. A.; Takamatsu, S.; Pelletier, 1.; Walker, L. A. J Nat Prod.

Vero cells = assay: Cytotoxicity to mammalian cells (Vero); format: cell-based
Procedure: as §2

[5] = test system: Mycobacterium intracellulare ATCC 23068; assay: Modified Alamar blue procedure, Mi; format: cell-based; details: ATCC23068, read-out: IC50 Mi
Procedure: as §1, with “Antimalarial and cytotoxicity testing were conducted in a similar manner as previously reported [a) Muhammad, 1.; Bedir, E.; Khan, S. I.; Tekwani, B. L.; Khan, I. A.; Takamatsu, S.; Pelletier, 1.; Walker, L. A. J Nat Prod. 2004, 67, 772-7. b) Muhammad, 1.; Dunbar, D. C.; Khan, S. 1.; Tekwani, B. L.; Bedir, E.; Takamatsu, S.; Ferreira, D, Walker L A., J Nat Prod. 2003, 66, 962-7].” left out

[6] = test system: Aspergillus fumigatus ATCC 90906; assay: Antimicrobial susceptibility testing, Af; format: cell-based
Procedure: as §1, with “Antimalarial and cytotoxicity testing were conducted in a similar manner as previously reported [a) Muhammad, 1.; Bedir, E.; Khan, S. I.; Tekwani, B. L.; Khan, I. A.; Takamatsu, S.; Pelletier, 1.; Walker, L. A. J Nat Prod. 2004, 67, 772-7. b) Muhammad, 1.; Dunbar, D. C.; Khan, S. 1.; Tekwani, B. L.; Bedir, E.; Takamatsu, S.; Ferreira, D, Walker L A., J Nat Prod. 2003, 66, 962-7].” left out

[7] = test system: Plasmodium falciparum W2 Clone; assay: Antimalarial testing, W2 clone; format: cell-based; details: W2 Clone
Procedure: as §1

[8] = SI = IC50 (vero cells)/IC50 (Pf)

IC50 (C. krusei ATCC 6258; Pichia kudriavzevii, ATCC6258, read-out: IC50 Ck): 15 µg/mL
IC50 [3]: 6 µg/mL
IC50 ([1]; ATCC90113, NA not defined in Table 1, read-out: IC50 Cn): 2 µg/mL
IC50 ([4]; Plasmodium falciparum, read-out: Plasmodium falciparum IC50 Pf (D6)): 0.26 µg/mL
IC50 ([2]; ATCC90028, NA not defined in Table 1, read-out: IC50 Ca): 2 µg/mL
IC50 [5]: 15 µg/mL
IC50 ([6]; ATCC90906, read-out: IC50 Af): 20 µg/mL
IC50 ([7]; Plasmodium falciparum, NA = Not active up to 20 μg/ml, read-out: Plasmodium falciparum IC50 Pf (W2)): 0.14 µg/mL
Molecule: C[n+]1c2ccccc2cc2c1c1ccccc1n2CCCCCn1c2ccccc2c2c1cc1ccccc1[n+]2C [Compound 12]
SI (D6) [4, 8]: >91.5
Cytotoxicity (Vero) TC50 (Vero cells; African green monkey): >23.8 µg/mL
no cytotoxicity up to (concentration) (Vero cells; African green monkey): > 23.8 µg/mL
SI (W2) [7, 8]: >170

melting point: 256 to 258 °C
Molecule: c1ccc2c(c1)cc1[nH]c3ccccc3c1[n+]2CCCCC[n+]1c2ccccc2cc2[nH]c3ccccc3c21 (hydrate or solvate) [Compound 10]

melting point: 238 to 240 °C
Molecule: C[n+]1c2ccccc2cc2c1c1ccccc1n2CCCCCn1c2ccccc2c2c1cc1ccccc1[n+]2C (hydrate or solvate) [Compound 12]

The next lines start with the molecule.

Molecule: C[n+]1c(-c2ccccc2)ccc2ccccc21 [Compound 8a]
IC50 ([1]; ATCC90113, read-out: IC50 Cn): 43 µg/mL
melting point: 196 to 198 °C
IC50 ([2]; ATCC90028, read-out: IC50 Ca): 180 µg/mL

Molecule: C[C@@H]1[C@H](O)[C@@H](C)/C=C/C=C/C=C/C=C/C=C/C=C/C=C/[C@H](O[C@@H]2O[C@H](C)[C@@H](O)[C@H](N)[C@@H]2O)C[C@@H]2O[C@](O)(C[C@@H](O)C[C@@H](O)[C@H](O)CC[C@@H](O)C[C@@H](O)CC(=O)O[C@H]1C)C[C@H](O)[C@H]2C(=O)O [Amphotericin B, reference compound]
IC50 Ck (C. krusei ATCC 6258): 0.60 µg/mL (≈ 0.649 µM)
IC50 Cn [1]: 0.6 µg/mL (≈ 0.649 µM)
Cytotoxicity (Vero) TC50 (Vero cells): 6.5 µg/mL
IC50 Ca [2]: 0.1 µg/mL (≈ 0.108 µM)
IC50 Af [6]: 0.31 µg/mL (≈ 0.335 µM)

Molecule: cryptolepine [Compound 2b, reference compound]
IC50 Cn [1]: 15.6^d μg/ml
IC50 Ca [2]: 0.8 to 180 µg/mL
